What all share (type): cell-based, human
One assay concerns AsPC-1 p-ERK. Description: Cell p-ERK assay (HTRF), AsPC-1 cells. As to conditions: Homo sapiens, ASPC1, 3 h, read-out: AsPC-1 p-ERK IC50(nM). How it is done:
(§1) The cells were digested with trypsin (containing EDTA), collected in their corresponding complete media, and counted. The density of the cell suspensions was adjusted with their corresponding complete media, and 10000 AsPC-1 cells or 20000 NCI-H441 cells per well were seeded into a 96-well cell culture plate, with the volume of the medium in each well being 80 µL. The cell culture plate was incubated in an incubator at 37 °C with 5% CO2 overnight. […] On the day after cell seeding, 20 µL of the 5× compound stock solution was added to each cell culture well. […] In addition to the compound-treated wells described above, cell-containing DMSO control wells were also set. A complete medium containing 0.5% DMSO was added at 20 µL/well. After the mixture was well mixed, the culture plate was incubated in the incubator at 37 °C with 5% CO2 for another 3 h. The medium was then removed from the culture wells, and 50 µL of cell lysis buffer (from Advance ERK phospho-T202/Y204 kit) was added to each well. The mixture was well mixed and incubated for 30 min. Then, 16 µL of the mixture was transferred to a white-bottomed, opaque 96-well assay plate, and separately, 16 µL of cell lysis buffer was added to additional wells (serving as blank wells) in the assay plate. After the transfer was completed, 4 µL of p-ERK HTRF antibody mixture (from Advance ERK phospho-T202/Y204 kit) was added to each well of the assay plate, followed by a 4-hour incubation. […] Using an XLfit software, the IR (%) values were plotted against the logarithm of the compound concentrations, and the dose-response curves were fitted using the four-parameter method to calculate the IC50 values.
For orientation: In TR-FRET formats the signal depends on donor and acceptor labels being close together.

The test system of a further assay is H441 p-ERK. In words: Cell p-ERK assay (HTRF), NCI-H441 cells. As to conditions: NCI-H441 cells (KRAS G12V), 3 h incubation. How it is done: as §1
For the next assay, the system named is NCI-H441 cells. Description: 3D cell proliferation assay (CellTiter Glo-3D), NCI-H441. The note with it: Homo sapiens, 120 h, NCI-H441 cells (KRAS G12V), 2% FBS, 5 days, read-out: H441 AP IC50. How it is done:
(§2) The cells were digested with trypsin (containing EDTA), collected in their respective low-serum complete media containing 2% FBS (for MIA Paca-2 cell culture: DMEM + 2% FBS + 0.5% Horse serum + 1% PS), and counted. After the cell density was adjusted as required, 200 MIA PaCa-2 cells, 800 AsPC-1 cells, 800 NCI-H441 cells, or 400 NCI-H1975 cells per well were seeded into a 384-well cell culture plate, with the volume of the medium in each well being 45 µL. The cell culture plate was incubated in an incubator at 37 °C with 5% CO2 overnight. […] On the day after cell seeding, 5 µL of the 10× compound stock solution was added to each cell culture well. […] In addition to the compound-treated wells described above, cell-containing DMSO control wells (with 5 µL of the complete medium containing 1% DMSO added to each well) and cell-free medium control wells (containing 50 µL of the complete medium with 2% FBS) were also set. The culture plate was incubated in an incubator at 37 °C with 5% CO2 for another 5 days, and then 30 µL of CellTiter-Glo working solution was added to each well. The mixture was well mixed, incubated for 30 min, left to stand at room temperature for 30 min, and then transferred to a white-bottomed, opaque 384-well assay plate at 40 µL/well. […] Using an XLfit software, the IR (%) values were plotted against the logarithm of the compound concentrations, and the dose-response curves were fitted using the four-parameter method to calculate the IC50 values.
On the technique in general: ATP-based viability assays read luminescence as a measure of living cells.

The test system of the next assay is AsPC-1 cells. In words: 3D cell proliferation assay (CellTiter Glo-3D), AsPC-1. The note with it: Homo sapiens, ASPC1, 120 h, read-out: AsPC-1 AP IC50(nM). How it is done: as §2

These results are taken from patent EP4775582A1, “MACROCYCLIC COMPOUND AND ANTIBODY-DRUG CONJUGATE THEREOF” (Genfleet Therapeutics (Shanghai) Inc., priority 2023, dated 2025).

`CCn1c(-c2cc(C#CCN3CCS(=O)(=O)CC3)cnc2[C@H](C)OC)c2c3cc(ccc31)-c1csc(n1)C[C@H](NC(=O)[C@@H](NC)C(C)C)C(=O)N1CCC[C@H](N1)C(=O)OCC(C)(C)C2` (atropisomer, axis not shown) [Compound Z4, (2S)-N-((6^3S,4S,Z)-1^2-(5-(3-(1,1-dioxidothiomorpholin-4-yl)prop-1-yn-1-yl)-2-((S)-1-methoxyethyl)pyridin-3-yl)-1^1-ethyl-10,10-dimethyl-5,7-dioxo-6^1,6^2,6^3,6^4,6^5, 6^6-hexahydro-1^1H-8-oxa-2(4,2)-thiazola-1(5,3)-indola-6(1,3)-pyridazinacycloundecaphane-4-yl)-3-methyl-2-(methylamino)butanamide]: the IC50 (in general, the point on the concentration scale where inhibition reaches its midpoint) in the assay on AsPC-1 p-ERK turned out to be 0.52 nM; with H441 p-ERK (Homo sapiens), 0.53 nM.

As for `COCCn1c(-c2cc(C#CCN3CCC(C#N)(CO)CC3)cnc2[C@H](C)OC)c2c3cc(ccc31)-c1csc(n1)C[C@H](NC(=O)[C@H]1[C@@H]3COC[C@@H]31)C(=O)N1CCC[C@H](N1)C(=O)OCC(C)(C)C2` (atropisomer, axis not shown) [Compound Z28, (1R,5S,6r)-N-((6^3S,4S,Z)-1^2-(5-(3-(4-cyano-4-hydroxymethylpiperidin-1-yl)prop-1-yn-1-yl)-2-((S)-1-methoxyethyl)pyridin-3-yl)-1^1-(methoxyethyl)-10,10-dimethyl-5,7-dioxo-6^1,6^2,6^3,6^4,6^5,6^6-hexahydro-1^1H-8-oxa-2(4,2)-thiazola-1(5,3)-indola-6(1,3)-pyridazinacycloundecaphane-4-yl)-3-oxabicyclo[3.1.0]hexane-6-carboxamide], the IC50 in the assay on NCI-H441 cells was 0.4 nM; in the assay with AsPC-1 p-ERK it was 0.42 nM; in the assay on AsPC-1 cells, 0.37 nM; in the assay with H441 p-ERK (Homo sapiens), 0.48 nM. Regarding `COCCn1c(-c2cc(C#CCN3CCN(C(=O)CO)CC3)cnc2[C@H](C)OC)c2c3cc(ccc31)-c1csc(n1)C[C@H](NC(=O)[C@H]1[C@@H]3COC[C@@H]31)C(=O)N1CCC[C@H](N1)C(=O)OCC(C)(C)C2` (atropisomer, axis not shown) [Compound Z31, (1R,5S,6r)-N-((6^3S,4S,Z)-1^2-(5-(3-(4-(2-hydroxyacetyl)piperazin-1-yl)prop-1-yn-1-yl)-2-((S)-1-methoxyethyl)pyridin-3-yl)-1^1-(methoxyethyl)-10,10-dimethyl-5,7-dioxo-6^1,6^2,6^3,6^4,6^5,6^6-hexahydro-1^1H-8-oxa-2(4,2)-thiazola-1(5,3)-indola-6(1,3)-pyridazinacycloundecaphane-4-yl)-3-oxabicyclo[3.1.0]hexane-6-carboxamide], it took 2.39 nM to reach half-maximal inhibition in the assay on H441 p-ERK (Homo sapiens) (IC50). Regarding `CCn1c(-c2cc(C#CCN3CCCOCC3)cnc2[C@H](C)OC)c2c3cc(ccc31)-c1csc(n1)C[C@H](NC1=NOC(C)(CC)C1)C(=O)N1CCC[C@H](N1)C(=O)OCC(C)(C)C2` (atropisomer, axis not shown) [Compound Z173, (6^3S,4S,Z)-1^2-(5-(3-(1,4-oxazepan-4-yl)prop-1-yn-1-yl)-2-((S)-1-methoxyethyl)pyridin-3-yl)-1^1-ethyl-10,10-dimethyl-4-((5-ethyl-5-methyl-4,5-dihydroisoxazol-3-yl)amino)-6^1,6^2,6^3,6^4,6^5,6^6-hexahydro-1^1H-8-oxa-2(4,2)-thiazola-1(5,3)-indola-6(1,3)-pyridazinacycloundecaphane-5,7-dione], the IC50 with H441 p-ERK (Homo sapiens) came to 3.03 nM. With `CCn1c(-c2cc(C#CCN3CCCOCC3)cnc2[C@H](C)OC)c2c3cc(ccc31)-c1csc(n1)C[C@H](NC1=NOC3(CCOCC3)C1)C(=O)N1CCC[C@H](N1)C(=O)OCC(C)(C)C2` (atropisomer, axis not shown) [Compound Z175, (6^3S,4S,Z)-1^2-(5-(3-(1,4-oxazepan-4-yl)prop-1-yn-1-yl)-2-((S)-1-methoxyethyl)pyridin-3-yl)-4-((1,8-dioxa-2-azaspiro[4.5]dec-2-en-3-yl)amino)-1^1-ethyl-10,10-dimethyl-6^1,6^2,6^3,6^4,6^5,6^6-hexahydro-1^1H-8-oxa-2(4,2)-thiazola-1(5,3)-indola-6(1,3)-pyridazinacycloundecaphane-5,7-dione], the IC50 came out at 6.03 nM in the assay on AsPC-1 p-ERK and 2.61 nM with H441 p-ERK (Homo sapiens). For the compound `CCn1c(-c2cc(C#CCN3CCS(=O)(=O)CC3)cnc2[C@H](C)OC)c2c3cc(ccc31)-c1csc(n1)C[C@H](NC(=O)[C@@H](N)C1CCCC1)C(=O)N1CCC[C@H](N1)C(=O)OCC(C)(C)C2` (atropisomer, axis not shown; (Ra)) [Compound Z14, (2S)-2-amino-2-cyclopentyl-N-((6^3S,4S,Z)-(Ra)-1^2-(5-(3-(1,1-dioxidothiomorpholino)prop-1-yn-1-yl)-2-((S)-1-methoxyethyl)pyridin-3-yl)-1^1-ethyl-10,10-dimethyl-5,7-dioxo-6^1,6^2,6^3,6^4,6^5,6^6-hexahydro-1^1H-8-oxa-2(4,2)-thiazola-1(5,3)-indola-6(1,3)-pyridazinacycloundecaphane-4-yl)acetamide], the IC50 came out at 0.45 nM in the assay on AsPC-1 p-ERK and 0.41 nM in the assay on H441 p-ERK (Homo sapiens).

In turn, `CCn1c(-c2cc(C#CCN3CCS(=O)(=O)CC3)cnc2[C@H](C)OC)c2c3cc(ccc31)-c1cc(N)cc(c1)C[C@H](NC(=O)C(C(C)C)N(C)C(=O)[C@@H]1CN(C(=O)OC)C[C@@H]1C)C(=O)N1CCC[C@H](N1)C(=O)OCC(C)(C)C2` (atropisomer, axis not shown; (Ra)) [Compound Z62] yielded an IC50 in the assay with H441 p-ERK of 3.19 nM. With `CCn1c(-c2cc(C#CCN3CCCOCC3)cnc2[C@H](C)OC)c2c3cc(ccc31)-c1csc(n1)C[C@H](NC1=NOC(C)(C)C1)C(=O)N1CCC[C@H](N1)C(=O)OCC(C)(C)C2` (atropisomer, axis not shown; (Ra)) [Compound Z172-1, (6^3S,4S,Z)-(Ra)-1^2-(5-(3-(1,4-oxazepan-4-yl)prop-1-yn-1-yl)-2-((5)-1-methoxyethyl)pyridin-3-yl)-1^1-ethyl-10,10-dimethyl-4-((5,5-dimethyl-4,5-dihydroisoxazol-3-yl)amino)-6^1,6^2,6^3,6^4,6^5,6^6-hexahydro-1^1H-8-oxa-2(4,2)-thiazola-1(5,3)-indola-6(1,3)-pyridazinacycloundecaphane-5,7-dione], the IC50 turned out to be 5.8 nM with AsPC-1 p-ERK and 2.17 nM in the assay on H441 p-ERK (Homo sapiens).

As for `CCn1c(-c2cc(C#CCN3CCCOCC3)cnc2[C@H](C)OC)c2c3cc(ccc31)-c1csc(n1)C[C@H](NC1=NOC(C)(C(C)C)C1)C(=O)N1CCC[C@H](N1)C(=O)OCC(C)(C)C2` (atropisomer, axis not shown; (Ra)) [Compound Z280, (6^3S,4S,Z)-(Ra)-1^2-(5-(3-(1,4-oxazepan-4-yl)prop-1-yn-1-yl)-2-((S)-1-methoxyethyl)pyridin-3-yl)-1^1-ethyl-10,10-dimethyl-4-((5-isopropyl-5-methyl-4,5-dihydroisoxazol-3-yl)amino)-6^1,6^2,6^3,6^4,6^5,6^6-hexahydro-1^1H-8-oxa-2(4,2)-thiazola-1(5,3)-indola-6(1,3)-pyridazinacycloundecaphane-5,7-dione], the IC50 with H441 p-ERK (Homo sapiens) amounted to 1.43 nM. Regarding `CCn1c(-c2cc(C#CCN3CCCOCC3)cnc2[C@H](C)OC)c2c3cc(ccc31)-c1csc(n1)C[C@H](NC1=NOC(C)(C3CC3)C1)C(=O)N1CCC[C@H](N1)C(=O)OCC(C)(C)C2` (atropisomer, axis not shown; (Ra)) [Compound Z281, (6^3S,4S,Z)-(Ra)-1^2-(5-(3-(1,4-oxazepan-4-yl)prop-1-yn-1-yl)-2-((S)-1-methoxyethyl)pyridin-3-yl)-1^1-ethyl-10,10-dimethyl-4-((5-cyclopropyl-5-methyl-4,5-dihydroisoxazol-3-yl)amino)-6^1,6^2,6^3,6^4,6^5,6^6-hexahydro-1^1H-8-oxa-2(4,2)-thiazola-1(5,3)-indola-6(1,3)-pyridazinacycloundecaphane-5,7-dione], the IC50 with NCI-H441 cells was found to be 3 nM; in the assay with AsPC-1 cells, 4.87 nM; in the assay on H441 p-ERK (Homo sapiens), 3.04 nM.
